What all share (type): in vivo
Assay [1] has as its system Venturia inaequalis. The assay can be described thus: Venturia test (apple)/protective. Particulars: apple young plants, protective spray, application rate 250 ppm, evaluation 10 days after inoculation; 0% = control, 100% = no infection. Here is the method: Venturia Test (Apple)/Protective [table] To produce an appropriate active ingredient formulation, 1 part by weight of active ingredient is mixed with the specified amounts of solvent and emulsifier, and the concentrate is diluted with water to the desired concentration. To test for protective activity, young plants are sprayed with the active ingredient formulation at the stated application rate. After the spray coating has dried on, the plants are inoculated with an aqueous conidia suspension of the apple scab pathogen Venturia inaequalis and then remain in an incubation cabin at approx. 20° C. and 100% relative air humidity for 1 day. The plants are then placed in a greenhouse at about 21° C. and a relative air humidity of approx. 90%.

In assay [2] the test system is Alternaria solani. The assay can be described thus: Alternaria test (tomato)/protective. Particulars: tomato young plants, protective spray, application rate 250 ppm, evaluation 3 days after inoculation; 0% = control, 100% = no infection. Here is the method: Alternaria Test (Tomato)/Protective [table] To produce an appropriate active ingredient formulation, 1 part by weight of active ingredient is mixed with the specified amounts of solvent and emulsifier, and the concentrate is diluted with water to the desired concentration. To test for protective activity, young plants are sprayed with the active ingredient formulation at the stated application rate. After the spray coating has dried on, the plants are inoculated with an aqueous spore suspension of Alternaria solani. The plants are then placed in an incubation cabin at approx. 20° C. and 100% relative air humidity.

The subject of assay [3] is Phytophthora infestans. Particulars: tomato young plants, protective spray, application rate 250 ppm, evaluation 3 days after inoculation; 0% = control, 100% = no infection.
Assay [4] relates to Plasmopara viticola. The assay can be described thus: Plasmopara test (grapevine)/protective. Particulars: grapevine young plants, protective spray, application rate 250 ppm, evaluation 6 days after inoculation; 0% = control, 100% = no infection. Here is the method:
Plasmopara Test (Grapevine)/Protective [table] To produce an appropriate active ingredient formulation, 1 part by weight of active ingredient is mixed with the specified amounts of solvent and emulsifier, and the concentrate is diluted with water to the desired concentration. To test for protective activity, young plants are sprayed with the active ingredient formulation at the stated application rate. After the spray coating has dried on, the plants are inoculated with an aqueous spore suspension of Plasmopara viticola and then remain in an incubation cabin at approx. 20° C. and 100% relative air humidity for 1 day. Subsequently, the plants are placed in a greenhouse at approx. 21° C. and approx. 90% air humidity for 4 days. The plants are then moistened and placed in an incubation cabin for 1 day.

Each structure is given as a SMILES string.

The results in this text go back to patent US8524916B2, “Dithiinetetra(thio)carboximides” (Bayer CropScience AG, priority 2010, dated 2013).

With `Cn1c(=O)c2sc3c(=O)n(C)c(=S)c3sc2c1=O` [drawing 24], the “Efficacy (%)” value in assay [1] is given as 99%.

With `Cn1c(=O)c2sc3c(=O)n(C)c(=S)c3sc2c1=O` [drawing 26], in assay [2], the “Efficacy (%)” value worked out at 95%.

As to `Cn1c(=O)c2sc3c(=O)n(C)c(=S)c3sc2c1=O` [drawing 22], the “Efficacy (%)” value in assay [3] is on record as 72%.

Turning to `Cn1c(=O)c2sc3c(=S)n(C)c(=O)c3sc2c1=S` [drawing 27], the “Efficacy (%)” value in assay [2] is on record as 76%.

Consider `Cn1c(=O)c2sc3c(=O)n(C)c(=S)c3sc2c1=O` [drawing 23], for which the “Efficacy (%)” value in assay [4] is 83%.

`Cn1c(=O)c2sc3c(=S)n(C)c(=O)c3sc2c1=S` [drawing 25]: the “Efficacy (%)” value in assay [1] was 71%.
